# From US7671027B2, “Use of GnRH agonists to support the luteal phase during infertility treatment” (PregLem S.A., priority 2002, dated 2010)
# Where two headings read alike, the source gives them in different places. Square brackets hold non-standard residues; d marks the D form. pGlu = O=C1CC[C@@H](C(=O)O)N1
# Columns and labels:
# [1] = tested on: patients who did not conceive; assay: Dose finding study: luteal phase serum oestradiol levels; assay type: in vivo, human
# Description: (§1) Patients suffering from unexplained infertility, or from infertility resulting from mild to moderate endometrioisis, or an infertility resulting from a mild or moderate alteration of their partner sperm, and whom have not conceived despite regular sexual intercourses during a period of one or two years, usually undergo medical assistance. The most often used treatment is ovarian stimulation coupled to an IUI (Hughes G. H. 1997, The effectiveness of ovulation induction and intra-uterine insemination in the treatment of persistent infertility: a meta-analysis. Hum Reprod. 12: 1865-1872).
# (§2) A prospective, randomised, parallel groups dose finding study was conducted in this patient population.
# (§3) The number and the size of each follicle was recorded.
# (§4) Between 12 and 48 hours after triggering ovulation, the patient's partner provided a sperm sample, after 2 to 5 days of abstinence. Motile sperm cells were separated from seminal fluid, dead sperm cells, leucocytes, and cellular debris using a suitable method such as a “swim-up” or a Percol gradient. On that same day, the motile sperm cell suspension was used to perform an intra-uterine insemination with a catheter inserted into the uterine cavity via the cervix. The procedure may be repeated on the next day.
# [2] = tested on: patients suffering from unexplained infertility, mild to moderate endometrioisis or partner sperm alteration; assay: Dose finding study: luteal phase duration and pregnancy outcome after ovarian stimulation and IUI; assay type: in vivo; settings: for Positive pregnancy test: patients positive/total, day 14 of luteal phase; for Clinical pregnancy: patients/total
# Description: as §1, §2, §3, §4
# [3] = tested on: patients who did not conceive; assay: Dose finding study: luteal phase serum progesterone levels; assay type: in vivo, human
# Description: as §1, §2, §3, §4
# [4] = tested on: patients in ART treatments; settings: cited from earlier work
# [5] = tested on: patients (hypothalamic amenorrhea); settings: nasal administration every 4 hours after IV GnRH induction of ovulation; in half of the patients; cited from earlier work
# [6] = Day 0, buserelin 100 μg/2 days IN
# [7] = Day 0, buserelin 100 μg/3 days IN
# [8] = Day 1, buserelin 100 μg/2 days IN
# [9] = Day 1, buserelin 100 μg/3 days IN
# [10] = Day 4, buserelin 100 μg/2 days IN
# [11] = Day 4, buserelin 100 μg/3 days IN
# [12] = Day 7, buserelin 100 μg/2 days IN
# [13] = Day 7, buserelin 100 μg/3 days IN
# [14] = Day 9, buserelin 100 μg/2 days IN
# [15] = Day 9, buserelin 100 μg/3 days IN
# [16] = Day 11, buserelin 100 μg/2 days IN
# [17] = Day 11, buserelin 100 μg/3 days IN
# [18] = Day 11, buserelin 100 μg/day IN
# [19] = Day 14, buserelin 100 μg/2 days IN
# [20] = Day 14, buserelin 100 μg/3 days IN
# [21] = Day 14, buserelin 100 μg/day IN
molecule,measurement,setting,value
"CCNC(=O)[C@@H]1CCCN1C(=O)[C@H](CCCNC(=N)N)NC(=O)[C@H](CC(C)C)NC(=O)[C@@H](COC(C)(C)C)NC(=O)[C@H](Cc1ccc(O)cc1)NC(=O)[C@H](CO)NC(=O)[C@H](Cc1c[nH]c2ccccc12)NC(=O)[C@H](Cc1cnc[nH]1)NC(=O)[C@@H]1CCC(=O)N1 [Buserelin, <Glu^1-His^2-Trp^3-Ser^4-Tyr^5-D-Ser(t-But)^6-Leu^7-Arg^8-Pro^9-EA (SEQ ID NO: 2)]",Luteal phase serum oestradiol level (mean ± SD),[1]; [6],247 ± 79 pg/mL
same,Luteal phase serum oestradiol level (mean ± SD),[1]; [7],182 ± 76 pg/mL
same,Luteal phase serum oestradiol level (mean ± SD),"[1]; Day 0, buserelin 100 μg/day IN",175 ± 071 pg/mL
same,Luteal phase serum oestradiol level (mean ± SD),[1]; [8],164 ± 75 pg/mL
same,Luteal phase serum oestradiol level (mean ± SD),[1]; [9],325 ± 160 pg/mL
same,Luteal phase serum oestradiol level (mean ± SD),[1]; [10],139 ± 77 pg/mL
same,Luteal phase serum oestradiol level (mean ± SD),[1]; [11],106 ± 61 pg/mL
same,Luteal phase serum oestradiol level (mean ± SD),"[1]; Day 4, buserelin 100 μg/day IN",179 ± 101 pg/mL
same,Luteal phase serum oestradiol level (mean ± SD),[1]; [12],70 ± 19 pg/mL
same,Luteal phase serum oestradiol level (mean ± SD),[1]; [13],144 ± 118 pg/mL
same,Luteal phase serum oestradiol level (mean ± SD),"[1]; Day 7, buserelin 100 μg/day IN",163 ± 30 pg/mL
same,Luteal phase serum oestradiol level (mean ± SD),[1]; [14],65 ± 15 pg/mL
same,Luteal phase serum oestradiol level (mean ± SD),[1]; [15],109 ± 88 pg/mL
same,Luteal phase serum oestradiol level (mean ± SD),"[1]; Day 9, buserelin 100 μg/day IN",232 ± 77 pg/mL
same,Luteal phase serum oestradiol level (mean ± SD),[1]; [16],75 ± 4 pg/mL
same,Luteal phase serum oestradiol level (mean ± SD),[1]; [17],123 ± 61 pg/mL
same,Luteal phase serum oestradiol level (mean ± SD),[1]; [18],200 ± 30 pg/mL
same,Luteal phase serum oestradiol level (mean ± SD),[1]; [19],124 ± 68 pg/mL
same,Luteal phase serum oestradiol level (mean ± SD),[1]; [20],82 ± 31 pg/mL
same,Luteal phase serum oestradiol level (mean ± SD),[1]; [21],154 ± 85 pg/mL
same,"luteal support, summary of tables 1-3","[2]; buserelin 100 μg IN once a day for 14 days, compared with the other groups","a longer luteal phase, higher progesterone and oestradiol levels in late luteal phase and a trend toward a higher clinical pregnancy rate"
same,Positive pregnancy test,[2]; buserelin 100 μg/2 days IN,2/6
same,Clinical pregnancy,[2]; buserelin 100 μg/2 days IN,1/6
same,Positive pregnancy test,[2]; buserelin 100 μg/3 days IN,1/5
same,Clinical pregnancy,[2]; buserelin 100 μg/3 days IN,0/5
same,Positive pregnancy test,[2]; buserelin 100 μg/day IN,2/6
same,Clinical pregnancy,[2]; buserelin 100 μg/day IN,2/6
same,Luteal phase duration (mean ± SD),"[2]; buserelin 200 μg IN trigger, then 100 μg/day IN for 14 days, n=6",15.3 ± 0.5 days
same,adverse local reactions of intra-nasal administration,[2]; self-administered intra-nasal buserelin 100 μg,did not carry the risk of adverse local reactions such as pain and abces
same,Luteal phase serum progesterone level (mean ± SD),[3]; [6],0.9 ± 0.7 ng/mL
same,Luteal phase serum progesterone level (mean ± SD),[3]; [7],0.7 ± 0.3 ng/mL
same,Luteal phase serum progesterone level (mean ± SD),"[3]; Day 0, buserelin 100 μg/day IN",1.1 ± 0.4 ng/mL
same,Luteal phase serum progesterone level (mean ± SD),[3]; [8],1.3 ± 0.8 ng/mL
same,Luteal phase serum progesterone level (mean ± SD),[3]; [9],0.9 ± 0.2 ng/mL
same,Luteal phase serum progesterone level (mean ± SD),"[3]; Day 1, buserelin 100 μg/day IN",1.2 ± 0.3 ng/mL
same,Luteal phase serum progesterone level (mean ± SD),[3]; [10],7.6 ± 3.2 ng/mL
same,Luteal phase serum progesterone level (mean ± SD),[3]; [11],5.1 ± 2.0 ng/mL
same,Luteal phase serum progesterone level (mean ± SD),"[3]; Day 4, buserelin 100 μg/day IN",6.2 ± 2.3 ng/mL
same,Luteal phase serum progesterone level (mean ± SD),[3]; [12],11.7 ± 4.6 ng/mL
same,Luteal phase serum progesterone level (mean ± SD),[3]; [13],11.5 ± 3.6 ng/mL
same,Luteal phase serum progesterone level (mean ± SD),"[3]; Day 7, buserelin 100 μg/day IN",13.9 ± 2.9 ng/mL
same,Luteal phase serum progesterone level (mean ± SD),[3]; [14],8.2 ± 6.4 ng/mL
same,Luteal phase serum progesterone level (mean ± SD),[3]; [15],10.8 ± 6.6 ng/mL
same,Luteal phase serum progesterone level (mean ± SD),"[3]; Day 9, buserelin 100 μg/day IN",16.2 ± 7.5 ng/mL
same,Luteal phase serum progesterone level (mean ± SD),[3]; [16],8.3 ± 6.5 ng/mL
same,Luteal phase serum progesterone level (mean ± SD),[3]; [17],10.0 ± 3.7 ng/mL
same,Luteal phase serum progesterone level (mean ± SD),[3]; [18],14.1 ± 3.3 ng/mL
same,Luteal phase serum progesterone level (mean ± SD),[3]; [19],5.8 ± 4.7 ng/mL
same,Luteal phase serum progesterone level (mean ± SD),[3]; [20],3.3 ± 2.4 ng/mL
same,Luteal phase serum progesterone level (mean ± SD),[3]; [21],8.4 ± 4.3 ng/mL
CC(=O)[C@H]1CC[C@H]2[C@@H]3CCC4=CC(=O)CC[C@]4(C)[C@H]3CC[C@]12C [progesterone],relative efficacy of IM progesterone vs vaginal progesterone,"[4]; C.I. of 1.02-1.75, in favor of the IM route (p<0.05)",1.33
same,odds to obtain a pregnancy compared to no luteal support,"[4]; progesterone IM, CI: 1.36-4.27, p<0.05",2.38
same,odds to obtain a pregnancy compared to no luteal support,"[4]; vaginal route, C.I. of 0.95-4.67 (NS)",2.11
"<Glu^1-His^2-Trp^3-Ser^4-Tyr^5-His^6-Leu^7-Arg^8-Pro^9-Gly^10-NH2 (SEQ ID NO: 1) ([pGlu]HWSYHLRPG-NH2; SMILES CC(C)C[C@H](NC(=O)[C@H](Cc1c[nH]cn1)NC(=O)[C@H](Cc1ccc(O)cc1)NC(=O)[C@H](CO)NC(=O)[C@H](Cc1c[nH]c2ccccc12)NC(=O)[C@H](Cc1c[nH]cn1)NC(=O)[C@@H]1CCC(=O)N1)C(=O)N[C@@H](CCCNC(=N)N)C(=O)N1CCC[C@H]1C(=O)NCC(N)=O; listed as Homo sapiens) [native GnRH, synthetic, native GnRH decapeptide]",support of the luteal phase,[5],completely ineffective
